Data on one compound can be found in patent US6576422B1, “Method for identifying products employing gene expression” (Rohm and Haas Company, priority 2000, dated 2003).

One test relates to L57 cells. Put plainly: Insect cell-based marker ligand assay (EcR gene switch, β-galactosidase reporter), L57 cells. Conditions: Drosophila melanogaster, 48 h, read-out: L57 Cells (Fold Induction).
The next test concerns BRL-AG2 cells. Put plainly: Insect cell-based marker ligand assay (EcR gene switch, β-galactosidase reporter), BRL-AG2 cells. Conditions: 48 h.
The mark [1] stands for this setting: read-out: BRL-AG2 (Fold Induction).
The mark [2] stands for this setting: read-out: BRL-AG2 Cells (Fold Induction).

Consider `COc1cccc(C(=O)NN(C(=O)c2cc(C)cc(C)c2)C(C)(C)C)c1C` [Marker, N′-tert-butyl-N′-(3 ,5-dimethylbenzoyl)-3-methoxy-2-methylbenzohydrazide], for which, in the test on L57 cells, the fold induction at 0.07 µg/mL came to 27, the fold induction at 0.12 µg/mL was 1, the fold induction at 0.69 µg/mL came out at 46 and the fold induction at 1.2 µg/mL was 23. Further, in the test with L57 cells, the fold induction at 6.95 µg/mL was 63 and the fold induction at 12 µg/mL came out at 30. Also, in the test on BRL-AG2 cells (setting [1]), the fold induction at 0.12 µg/mL came out at 16, the fold induction at 1.2 µg/mL was determined as 21 and the fold induction at 12 µg/mL stood at 31. In the test on BRL-AG2 cells (setting [2]), the fold induction at 0.07 µg/mL worked out at 151, the fold induction at 0.69 µg/mL is 182 and the fold induction at 6.95 µg/mL was determined as 202.
